# Data: patent US20190110476A1, “NOVEL ISOTHIAZOLAMIDES, PROCESSES FOR THEIR PREPARATION AND THEIR USE AS FUNGICIDES” (priority 2014, published 2019)
# Marks after values point to notes of the source that are not given here.
# Assay: Measurement of LogP values by HPLC on reversed phase columns (EEC directive 79/831 Annex V.A8)
# Format: physicochemical
# Summary of the method: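 Following EEC directive 79/831 Annex V.A8, lipophilicity was derived from retention on reversed-phase HPLC columns. Separate values are given per diastereoisomer, and UV lambda-max (200–400 nm) was read at the peak signals.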
row,SMILES,LogP
1,Nc1nsc(C(=O)NC2CCCC3CCCCC32)c1Cl (stereo not shown) [I-621],3.39[a]
2,Nc1nsc(C(=O)NC2CCCC3CCCCC32)c1Cl (stereo not shown) [I-622],3.48[a]
3,O=C(NC1CCCC2CCCCC21)c1snc(NCC(F)(F)F)c1NCC(F)(F)F (stereo not shown) [I-631],4.82[a]
4,Nc1nsc(C(=O)NCC2CCC(O)C2)c1Cl (stereo not shown) [I-658],0.72[a]
5,COc1ccc(CNc2nsc(C(=O)NCc3ccc(C)o3)c2Cl)cc1 [I-674],3.27[a]
6,COc1ccc(CNc2nsc(C(=O)NCC3CCC(C)CC3)c2Cl)cc1 (stereo not shown) [I-675],4.56[a]
7,O=C(NCC1CCCCC1)c1snc(NCCCO)c1Cl [I-676],2.46[a]
8,Nc1nsc(C(=O)NCc2cc(F)c(F)cc2F)c1Cl [I-677],2.03[a]
9,O=CCCNc1nsc(C(=O)NCC2CCCCC2)c1Cl [I-715],2.83[a]
10,Nc1nsc(C(=O)NCc2cccc(I)c2)c1Cl [I-716],2.51[a]
11,O=C(O)CCNc1nsc(C(=O)NCC2CCCCC2)c1Cl [I-721],2.42[a]
12,CCOc1c(N)nsc1C(=O)NCc1c(F)cc(F)cc1F [I-724],2.09[a]
13,CCOc1c(N)nsc1C(=O)NCC1CCCC1 [I-725],2.18[a]
14,CCOc1c(N)nsc1C(=O)NCC1(O)CCCCC1 [I-726],1.55[a]
15,CCOc1c(N)nsc1C(=O)NC1CCCCC1 [I-727],2.14[a]
16,CCOc1c(N)nsc1C(=O)NCC1CCCCCC1 [I-728],2.83[a]
17,CCOc1c(N)nsc1C(=O)NCC1CCCCO1 (stereo not shown) [I-729],1.66[a]
18,CCOc1c(N)nsc1C(=O)NCc1ccccc1F [I-730],1.93[a]
19,CCOc1c(N)nsc1C(=O)NCc1ccc(Cl)cc1 [I-731],2.26[a]
20,COc1c(N)nsc1C(=O)NCc1c(F)cc(F)cc1F [I-732],1.82[a]
21,COc1c(N)nsc1C(=O)NCc1ccccc1F [I-733],1.64[a]
22,COc1c(N)nsc1C(=O)NCC1CCCCO1 (stereo not shown) [I-734],1.31[a]
23,COc1c(N)nsc1C(=O)NCC1CCCCCC1 [I-735],2.50[a]
24,COc1c(N)nsc1C(=O)NCC1CCCC1 [I-736],1.87[a]
25,COc1c(N)nsc1C(=O)NCc1ccc(Cl)cc1 [I-737],1.98[a]
26,CC1CCC(CNC(=O)c2snc(N)c2Cl)CC1 (stereo not shown) [I-738],2.75[a]
27,COc1ccc(CNc2nsc(C(=O)NCC34CCC(CC3)C4)c2Cl)cc1 [I-739],4.29[a]
28,Nc1cc(C(=O)NCC2CCCC2O)sn1 (stereo not shown) [I-774],0.63[a]

row,SMILES,LogP
1,Nc1cc(C(=O)NCC2CCC(O)C2)sn1 (stereo not shown) [I-775],0.36[a]
2,COc1cc(F)ccc1CNC(=O)c1snc(N)c1Cl [I-782],2.02[a]
3,N#Cc1ccc(CNC(=O)c2snc(N)c2Cl)cc1 [I-783],1.44[a]
4,Cc1cc(F)ccc1CNC(=O)c1snc(N)c1Cl [I-784],2.09[a]
5,Nc1nsc(C(=O)NCC2CCCCC2)c1O [I-797],2.12[a]
6,Nc1nsc(C(=O)NC2CCCC3CCCCC32)c1Cl (stereo not shown) [I-808],3.33[a]
7,Cc1cc(F)ccc1CNC(=O)c1snc(NC(=O)C(F)F)c1Cl [I-809],2.28[a]
8,CCC(=O)N(C(=O)CC)c1nsc(C(=O)NCc2ccc(C#N)cc2)c1Cl [I-810],2.89[a]
9,CCC(=O)Nc1nsc(C(=O)NCc2ccc(C#N)cc2)c1Cl [I-811],1.54[a]
10,N#Cc1ccc(CNC(=O)c2snc(NC(=O)C(F)(F)F)c2Cl)cc1 [I-812],2.12[a]
11,N#Cc1ccc(CNC(=O)c2snc(NC(=O)C(F)F)c2Cl)cc1 [I-813],1.68[a]
12,Cc1ccc(CNC(=O)c2snc(N)c2Cl)o1 [I-814],1.66[a]
13,CCC(=O)Nc1nsc(C(=O)NCc2ccc(F)cc2OC)c1Cl [I-815],2.10[a]
14,Cc1cc(F)ccc1CNC(=O)c1snc(NC(=O)C(F)(F)F)c1Cl [I-816],2.72[a]
15,CCC(=O)Nc1nsc(C(=O)NCc2ccc(F)cc2C)c1Cl [I-817],2.15[a]
16,C[C@H](NC(=O)c1snc(N)c1Br)C1CCCCC1 [I-818],2.84[a]
17,COc1cc(F)ccc1CNC(=O)c1snc(NC(=O)C(F)(F)F)c1Cl [I-819],2.72[a]
18,COc1cc(F)ccc1CNC(=O)c1snc(NC(=O)C(F)F)c1Cl [I-820],2.23[a]
19,Nc1nsc(C(=O)NCC2CCCCC2Cl)c1Cl (stereo not shown) [I-821],2.44[a]
20,Nc1nsc(C(=O)NCC23CCC(CC2)C3)c1Cl [I-822],2.53[a]
21,COc1ccc(CNc2nsc(C(=O)NCC3(OC)CCC(C)CC3)c2Cl)cc1 (stereo not shown) [I-823],4.33[a]
22,CCC1(CNC(=O)c2snc(NCc3ccc(OC)cc3)c2Cl)CCCCC1 [I-824],4.89[a]
23,COc1ccc(CNc2nsc(C(=O)NCC3(C)CCC(C)CC3)c2Cl)cc1 (stereo not shown) [I-825],4.84[a]
24,Nc1nsc(C(=O)NCC2(F)CCCC2)c1Cl [I-826],1.81[a]
25,Nc1nsc(C(=O)NCC2(F)CCC2)c1Cl [I-827],1.50[a]
26,Nc1nsc(C(=O)NCC2(F)CCCCC2)c1Br [I-828],2.15[a]
27,Nc1nsc(C(=O)NCC2(F)CCCC2)c1Br [I-829],1.83[a]

# Results, then the compound that gave them:
row,LogP,SMILES
1,1.82[a],Nc1nsc(C(=O)NCc2ccc(F)cc2)c1Br [I-831]
2,1.79[a],Nc1nsc(C(=O)NCc2ccccc2F)c1Br [I-832]
3,2.21[a],N#CC(NC(=O)c1snc(N)c1Br)C1CCCCC1 (stereo not shown) [I-833]
4,5.03[a],CCC1(CNC(=O)c2snc(NC(C)C)c2Cl)CCCCC1 [I-834]
5,3.17[a],CC1CCC(C)(CNC(=O)c2snc(N)c2Cl)CC1 (stereo not shown) [I-835]
6,3.20[a],CCC1(CNC(=O)c2snc(N)c2Cl)CCCCC1 [I-836]
7,2.58[a],COC1(CNC(=O)c2snc(N)c2Cl)CCC(C)CC1 (stereo not shown) [I-837]
8,2.68[a],Nc1nsc(C(=O)NCC2CCC(C(F)(F)F)CC2)c1Br (stereo not shown) [I-840]
9,2.11[a],Nc1nsc(C(=O)NC2CCCCC2)c1Br [I-841]
10,2.60[a],CC1(C)CC(CNC(=O)c2snc(N)c2Br)C1 [I-842]
11,1.92[a],CCOC(=O)C1CCC(NC(=O)c2snc(N)c2Cl)CC1 (stereo not shown) [I-843]
12,2.02[a],CCOC(=O)C1CCC(NC(=O)c2snc(N)c2Cl)CC1 (stereo not shown) [I-844]
13,2.12[a],CC(=O)N(C(C)=O)c1nsc(C(=O)NCc2ccc(C#N)cc2)c1Cl [I-846]
14,1.24[a],CC(=O)Nc1nsc(C(=O)NCc2ccc(C#N)cc2)c1Cl [I-847]
15,2.92[a],Nc1nsc(C(=O)NCCC2CCCCC2)c1Cl [I-850]
16,1.98[a],Nc1nsc(C(=O)NCCc2ccccc2)c1Cl [I-851]
17,1.83[a],Nc1nsc(C(=O)Nc2ccccc2)c1Cl [I-852]
18,2.23[a],Nc1cc(C(=O)NCCC2CCCCC2)sn1 [I-853]
19,1.52[a],Nc1cc(C(=O)NCCc2ccccc2)sn1 [I-854]
20,1.41[a],Nc1cc(C(=O)Nc2ccccc2)sn1 [I-855]
21,3.83[a],COc1ccc(CNc2nsc(C(=O)Nc3ccc(F)cc3F)c2Cl)cc1 [I-856]
22,2.04[a],Nc1nsc(C(=O)Nc2ccc(F)cc2)c1Cl [I-857]
23,3.76[a],COc1ccc(CNc2nsc(C(=O)Nc3ccc(F)cc3)c2Cl)cc1 [I-858]
24,6.09[a],COc1ccc(CNc2nsc(C(=O)N(CC3C(C)CCCC3(C)C)C3CC3)c2Cl)cc1 (stereo not shown) [I-859]
